Test results reported in patent US11013780B2, “Methods of treating female infertility” (Myovant Sciences GmbH, priority 2016, dated 2021).
Where a SMILES comes first, the peptide text is derived from it. [ ]: non-standard residue; d: D form. Arg(Me) = CNC(=N)NCCC[C@H](N)C(=O)O; Hyp = O=C(O)[C@@H]1C[C@@H](O)CN1; azaGly = NNC(=O)O

Tests used:
[1] = 1-month depot PK, prostate cancer patients; type: in vivo, human; conditions: for AUC(0-t) / Cmax / Tmax: male, human, plasma; for AUC(0-t): sc; for AUC(0-t) / Cmax / Tmax / Tlqc: prostate cancer patients; for AUC(0-t) / Cmax / Tlqc: geometric mean; for Tmax: read-out: Tmax (median)
Procedure: Another study enrolled prostate cancer patients who had completed their primary treatment for prostate cancer at least 6 months prior to screening and were either on GnRH therapy or were potential future candidates for GnRH therapy. Nine patients were enrolled, three in each dose group (6, 12, and 24 mg). All were white men. Patients received API-MA as a single 1-month depot SC injection into the abdomen that was intended to initiate both a high-burst release of API-MA and rapid stimulation of hypothalamic-pituitary-gonadal-axis, and was expected to suppress testosterone. Overall, 4 of 9 patients received concomitant GnRH therapy.

CYP1A2 = biological target: T1, CYP1A2 (Homo sapiens, UniProt P05177); assay: Inhibition of recombinant CYP1A2; type: in vitro ADME
T1 sequence (P05177 1-516): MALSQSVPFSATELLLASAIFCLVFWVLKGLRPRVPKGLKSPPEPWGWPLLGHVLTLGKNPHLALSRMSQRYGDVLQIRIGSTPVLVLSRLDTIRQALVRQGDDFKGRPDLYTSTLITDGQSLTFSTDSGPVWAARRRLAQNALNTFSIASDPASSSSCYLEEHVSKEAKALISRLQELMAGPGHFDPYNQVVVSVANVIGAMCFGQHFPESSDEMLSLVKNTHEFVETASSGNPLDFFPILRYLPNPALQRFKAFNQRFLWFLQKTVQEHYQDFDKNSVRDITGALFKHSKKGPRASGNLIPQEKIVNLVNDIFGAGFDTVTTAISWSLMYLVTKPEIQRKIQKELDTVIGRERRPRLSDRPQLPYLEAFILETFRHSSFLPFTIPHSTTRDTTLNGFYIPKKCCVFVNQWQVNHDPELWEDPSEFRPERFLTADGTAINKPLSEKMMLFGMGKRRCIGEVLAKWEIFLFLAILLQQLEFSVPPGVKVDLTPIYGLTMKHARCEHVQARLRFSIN

[2] = In vitro distribution into blood cells, dogs; type: in vitro ADME
Procedure: (§1) The in vitro distribution ratios of [^14C]API-MA into the blood cells at the concentrations of 0.01, 0.1, 1, and 10 μg/mL API-FB (free form) were 7.8%, 8.0%, 7.1%, and 4.8% for rats, 2.4%, 2.0%, 1.6%, and 1.2% for dogs, and 2.0%, 0.0%, 0.0%, and 0.5% for humans, respectively. […] The in vitro plasma protein binding ratios of [^14C]API-FB in rats, dogs, monkeys, and humans were determined by the ultracentrifugation method. In addition, the protein binding to human serum albumin (HSA), α1-acid glycoprotein (AGP), and HSA/AGP was investigated. […] In rats and dogs, a slight decrease in the binding ratio at the concentration range between 0.1 and 1.0 μg/mL API-FB was observed. In monkeys and humans, the binding was independent of the drug concentrations from 0.01 to 10 μg/mL API-FB.

[3] = In vitro distribution into blood cells, humans; type: in vitro ADME
Procedure: as §1

serum LH and FSH = assay: Single dose pharmacodynamics (LH, FSH), Japanese men; type: in vivo, human; conditions: single dose 0.001 to 0.5 mg
Procedure: In the phase 1 clinical study of API-MA, subjects enrolled in the first seven cohorts received single SC bolus doses of 0.001, 0.004, 0.01, 0.04, 0.1, 0.25 or 0.5 mg of API-MA or placebo. Subjects enrolled in the eighth and ninth cohorts received single SC infusion doses of 0.25 or 0.5 mg of API-MA or placebo. The pharmacodynamics of the following hormones were assessed: LH, FSH, dihydroepiandrosterone sulfate (DHEA-S), growth hormone (GH), prolactin (PRL), thyroid-stimulating hormone (TSH), and adrenocorticotropic hormone (ACTH). The pharmacodynamic analysis set consisted of 37 subjects (bolus cohorts: 29; infusion cohorts: 8). […] In addition, blood specimens were collected for the measurement of LH and FSH on the day prior to dosing with API-MA. The time courses of mean serum LH concentrations following a single SC bolus of API-MA at doses ranging from 0.001 mg to 0.5 mg are shown in FIG. 6. The LH concentrations peaked between 12 and 24 hours and generally returned to baseline by 72 hours postdose. The magnitudes and durations of the LH concentration increases were similar across the dose range, 0.001 to 0.5 mg. The LH time courses were similar following a single 2-hour SC infusion of API-MA (data not shown).

[4] = Multiple-dose PK, SC bolus then continuous 13-day SC infusion, healthy European men; conditions: for Css / AUC(0-t) / Cmax: European men, geometric mean (% CV); for AUC(0-t): AUC (0-tlqc) (equal to AUC (0-24))
Procedure: Another study was a phase 1 clinical study of multiple-dose administration of API-MA. The study was conducted in France. It was a randomized, double-blind, placebo-controlled, parallel-group, ascending dose study of the safety, tolerability, plasma PK, and endocrine pharmacodynamic effects of API-MA administered as an SC bolus (0.1 mg) on day 1 followed by continuous SC infusion (i.e., 24 hr/day) from Day 2 to Day 14 (0.01, 0.1, 0.3, or 1.0 mg/day), which was expected to suppress testosterone.

human KISS1R = human KISS1R (Homo sapiens, UniProt Q969F8); assay: Competitive binding assay, human KISS1R; set-up: expressed in transfected cells
Source text: The binding affinity of API-MA to membrane fractions of KISS1R-expressing recombinant cells was examined in a competitive binding assay.

[5] = male, human, plasma, sc, 0.1 mg, SC bolus 0.1 mg on Day 1, dosing group 0.01 mg/day
[6] = male, human, plasma, sc, 0.1 mg, SC bolus 0.1 mg on Day 1, dosing group 0.1 mg/day
[7] = male, human, plasma, sc, 0.1 mg, SC bolus 0.1 mg on Day 1, dosing group 0.3 mg/day
[8] = male, human, plasma, sc, 0.1 mg, SC bolus 0.1 mg on Day 1, dosing group 1.0 mg/day

human KISS1R, sequence (Q969F8 whole entry): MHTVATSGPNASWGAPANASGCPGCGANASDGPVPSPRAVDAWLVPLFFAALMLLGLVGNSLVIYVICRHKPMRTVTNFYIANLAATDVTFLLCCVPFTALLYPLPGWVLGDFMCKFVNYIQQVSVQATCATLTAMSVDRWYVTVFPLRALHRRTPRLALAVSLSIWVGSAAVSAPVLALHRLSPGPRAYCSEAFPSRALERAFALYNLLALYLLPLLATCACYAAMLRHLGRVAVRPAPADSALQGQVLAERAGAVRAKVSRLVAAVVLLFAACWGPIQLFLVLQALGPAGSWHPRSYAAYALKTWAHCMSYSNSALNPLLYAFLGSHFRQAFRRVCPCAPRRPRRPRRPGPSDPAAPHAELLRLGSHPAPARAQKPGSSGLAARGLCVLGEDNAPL

SMILES: CC(=O)O.CNC(=N)NCCC[C@H](NC(=O)[C@H](CC(C)C)NC(=O)NNC(=O)[C@H](Cc1ccccc1)NC(=O)[C@@H](NC(=O)[C@H](CC(N)=O)NC(=O)[C@@H]1C[C@@H](O)CN1C(=O)[C@@H](Cc1ccc(O)cc1)NC(C)=O)[C@@H](C)O)C(=O)N[C@@H](Cc1c[nH]c2ccccc12)C(N)=O [API-MA, 2-(N-Acetyl-D-tyrosyl-trans-4-hydroxy-L-prolyl-Lasparaginyl-L-threonyl-L-phenylalanyl)-hydrazinocarbonyl-L-leucyl-Nω-methyl-L-arginyl-L-tryptophanamide monoacetate] (Ac-[dY][Hyp]NTF[azaGly]L[Arg(Me)]W-NH2)
- Detectability of API-MA in plasma ([1]; 1-month depot 6, 12 or 24 mg, all cases): not detectable by 8 weeks postdose
- AUC(0-24) as share of AUC(0-tlqc) ([1]; 1-month depot 6, 12 or 24 mg, burst phase): over 60%
- AUC(0-t) ([1]; 6 mg/month, 1-month depot SC 6 mg/month, read-out: AUC (0-24) (converted)): 79.6 ng·h/mL
- AUC(0-t) ([1]; 6 mg/month, 1-month depot SC 6 mg/month, read-out: AUC (0-29 d) (converted)): 104 ng·h/mL
- AUC(0-t) ([1]; 6 mg/month, 1-month depot SC 6 mg/month, read-out: AUC (0-tlqc) (converted)): 119 ng·h/mL
- AUC(0-t) ([1]; 12 mg/month, 1-month depot SC 12 mg/month, read-out: AUC (0-24) (converted)): 119 ng·h/mL
- AUC(0-t) ([1]; 12 mg/month, 1-month depot SC 12 mg/month, read-out: AUC (0-29 d) (converted)): 138 ng·h/mL
- AUC(0-t) ([1]; 12 mg/month, 1-month depot SC 12 mg/month, read-out: AUC (0-tlqc) (converted)): 158 ng·h/mL
- AUC(0-t) ([1]; 24 mg/month, 1-month depot SC 24 mg/month, read-out: AUC (0-24) (converted)): 179 ng·h/mL
- AUC(0-t) ([1]; 24 mg/month, 1-month depot SC 24 mg/month, read-out: AUC (0-29 d) (converted)): 209 ng·h/mL
- AUC(0-t) ([1]; 24 mg/month, 1-month depot SC 24 mg/month, read-out: AUC (0-tlqc) (converted)): 239 ng·h/mL
- Cmax ([1]; 1-month depot SC 6 mg/month): 16.5 ng/mL
- Tmax ([1]; 1-month depot SC 6 mg/month): 2 h
- Cmax ([1]; 1-month depot SC 12 mg/month): 14.4 ng/mL
- Tmax ([1]; 1-month depot SC 12 mg/month): 2.05 h
- Cmax ([1]; 1-month depot SC 24 mg/month): 25.5 ng/mL
- Tmax ([1]; 1-month depot SC 24 mg/month): 2.05 h
- Tlqc ([1]; 1-month depot SC 6 mg/month): 42.9 h
- Tlqc ([1]; 1-month depot SC 12 mg/month): 41.5 h
- Tlqc ([1]; 1-month depot SC 24 mg/month): 47.2 h
- IC50 (CYP1A2): > 7.78 nM
- Distribution ratio into blood cells ([2]; 0.01 μg/mL API-FB): 2.4%
- Distribution ratio into blood cells ([2]; 0.1 μg/mL API-FB): 2.0%
- Distribution ratio into blood cells ([2]; 1 μg/mL API-FB): 1.6%
- Distribution ratio into blood cells ([2]; 10 μg/mL API-FB): 1.2%
- Distribution ratio into blood cells ([3]; 0.01 μg/mL API-FB): 2.0%
- Distribution ratio into blood cells ([3]; 0.1 μg/mL API-FB): 0.0%
- Distribution ratio into blood cells ([3]; 1 μg/mL API-FB): 0.0%
- Distribution ratio into blood cells ([3]; 10 μg/mL API-FB): 0.5%
- Time of FSH return to baseline / predose level (serum LH and FSH): ≤ 72 h
- Time of LH return to baseline (serum LH and FSH): ≤ 72 h
- Css ([4]; continuous 13-day SC INF 0.01 mg/day (Days 2-14)): 20.2 (34) pg/mL
- Css ([4]; continuous 13-day SC INF 0.1 mg/day (Days 2-14)): 226 (17) pg/mL
- Css ([4]; continuous 13-day SC INF 0.3 mg/day (Days 2-14)): 708 (19) pg/mL
- Css ([4]; continuous 13-day SC INF 1.0 mg/day (Days 2-14)): 2280 (16) pg/mL
- CL/F ([4]; male, human, plasma, sc, 0.01 mg/day): 343 mL/min
- Tmax ([4]; male, human, plasma, sc, 0.1 mg): 0.5 h
- AUC(0-t) [4, 5]: 5.08 ng·h/mL
- AUC(0-t) [4, 6]: 4.28 ng·h/mL
- AUC(0-t) [4, 7]: 4.68 ng·h/mL
- AUC(0-t) [4, 8]: 4.05 ng·h/mL
- Cmax [4, 5]: 1.87 ng/mL
- Cmax [4, 6]: 1.59 ng/mL
- Cmax [4, 7]: 1.65 ng/mL
- Cmax [4, 8]: 1.29 ng/mL
- CL/F ([4]; male, human, plasma, sc, 0.1 mg/day): 308 mL/min
- CL/F ([4]; male, human, plasma, sc, 0.3 mg/day): 295 mL/min
- CL/F ([4]; male, human, plasma, sc, 1 mg/day): 305 mL/min
- IC50 (human KISS1R): 0.23 nM
